Source: US20180036330A1, “NUCLEOTIDE PHOSPHORAMIDATE FORMULATION” (priority 2015, published 2018)
Values after ≈ are worked out from the molar mass of the structure shown. Read-outs that look alike come from different tables or passages of the source.

Assays:
[1] = test system: HCV replicon (NS3-NS5B regions of HCV type 1 b) in Huh-7 luc/neo cells; assay: HCV replicon assay (Huh-Luc, luciferase); type: cell-based; details: Hepatitis C virus, Huh-7, 72 h, three days incubation, luciferase activity, n>10
Excerpt: The compositions of the invention may be examined for activity in the inhibition of HCV RNA replication in a cellular assay aimed at identifying compounds that inhibit a HCV functional cellular replicating cell line, also known as HCV replicons. A suitable cellular assay is based on a bicistronic expression construct, as described by Lohmann et al. (1999), Science vol. 285 pp. 110-113 with modifications described by Krieger et al. (2001), Journal of Virology 75: 4614-4624, in a multi-target screening strategy.
The assay utilizes the stably transfected cell line Huh-7 luc/neo (hereafter referred to as Huh-Luc). […]
The replicon cells are plated in 384 well plates in the presence of the test and control compounds which are added in various concentrations. Following an incubation of three days, HCV replication is measured by assaying luciferase activity (using standard luciferase assay substrates and reagents and a Perkin Elmer ViewLux™ ultraHTS microplate imager). […] The inhibitory activity of a compound on luciferase activity is monitored on the Huh-Luc cells, enabling a dose-response curve for each test compound. […]

[2] = Basket dissolution test USP method 711 of Compound 1 in hard gelatin capsule (Example 3); type: physicochemical; details: for Mean % Compound 1 released: n = 2
Description: Dissolution test. 350 mg of Compound 1 was filled into a hard gelatin capsule. A basket dissolution test was performed according to USP method 711, at 100 rpm at 37° C., 900 g media, 5 ml sampling after 20, 45, 90 minutes. Samples were analysed by RP-UPLC. […] The lump was very sticky when wet but dried to a hard lump in air.

[3] = Solubility of Compound 1 in ethanol; type: physicochemical; details: for solubility: 99% ethanol, organic solvent or mixture, heated to 50-60° C., transparent syrup, read-out: solubility in ethanol: final concentration fully dissolved
Description: 100.43 mg of Compound 1 was weighed into a glass vial. 37 μl of 99% ethanol was added so that final concentration was 2700 mg/ml. The formulation was heated to 50-60° C. during gentle agitation until the drug substance was fully dissolved. A transparent syrup was obtained and the solution remained transparent after cooling and storage at room temperature for more than 48 hours with no visible crystals.
200.26 mg of Compound 1 was weighed into a glass vial. 67 μl of 99% ethanol was added so that final concentration was 3000 mg/ml. The formulation was heated to 50-60° C. during gentle agitation until the drug substance was fully dissolved. A transparent syrup was obtained.

Huh-Luc cell line = assay: Cell toxicity in the Huh-Luc cell line; type: cell-based
[4] = solvent not given, context ethanol, cited from earlier work

Row | SMILES | EC50 [1] | Mean % Compound 1 released ([2]; 0.1M HCl, 20 min, 350 mg in hard gelatin capsule, 37° C., 100 rpm) | Mean % Compound 1 released ([2]; 0.1M HCl, 45 min, 350 mg in hard gelatin capsule) | Mean % Compound 1 released ([2]; 0.1M HCl, 90 min, 350 mg in hard gelatin capsule) | observation of capsule during dissolution test ([2]; 350 mg in hard gelatin capsule, 90 min) | Mean % Compound 1 released ([2]; FaSSIF, 20 min, 350 mg in hard gelatin capsule) | Mean % Compound 1 released ([2]; FaSSIF, 45 min, 350 mg in hard gelatin capsule) | Mean % Compound 1 released ([2]; FaSSIF, 90 min, 350 mg in hard gelatin capsule) | solubility of the lump in 70% EtOH ([2]; lump formed from capsule, 70% EtOH) | time solution remained transparent with no visible crystals ([3]; 2700 mg/ml in 99% ethanol, after cooling, storage at room temperature) | appearance after cooling and storage at room temperature ([3]; 3000 mg/ml in 99% ethanol) | solubility ([3]; 100.43 mg in 37 μl 99% ethanol) | solubility ([3]; 200.26 mg in 67 μl 99% ethanol) | cell toxicity (Huh-Luc cell line) | published solubility ([4]; Cayman Chemical item no 15402 and Apex BT Catalog no. A3738) | published solubility ([4]; Selleckchem Catalog no S2794)
1 | CC(C)OC(=O)[C@H](C)N[P@](=O)(OC[C@H]1O[C@@H](n2ccc(=O)[nH]c2=O)[C@@](F)(Cl)[C@@H]1O)Oc1ccccc1 [Compound 1, (S)-Isopropyl 2-(((S)-(((2R,3R,4S,5R)-4-chloro-5-(2,4-dioxo-3,4-dihydropyrimidin-1(2H)-yl)-4-fluoro-3-hydroxytetrahydrofuran-2-yl)methoxy)(phenoxy)phosphoryl)amino)propanoate] | 55 nM | 2% | 3% | 5% | water insoluble lump that did not dissolve or change much during 90 min | 2% | 5% | 8% | surprisingly soluble | more than 48 hours | solidified to a slightly opaque semisolid with no visible crystals | 2700 mg/mL (≈ 4910 mM) | 3000 mg/mL (≈ 5460 mM) | > 50 µM | – | –
2 | CC(C)OC(=O)[C@H](C)N[P@](=O)(OC[C@H]1O[C@@H](n2ccc(=O)[nH]c2=O)[C@](C)(F)[C@@H]1O)Oc1ccccc1 [sofosbuvir] | – | – | – | – | – | – | – | – | – | – | – | – | – | – | 25 mg/mL | 100 mg/mL
